The experiment deals with T1, MFSD7C (major facilitator superfamily domain containing 7C; FLVCR2; SLC49A2) (Homo sapiens, UniProt Q9UPI3).
T1 construct: N-terminal domain (NTD), amino acids 1–84
T1 sequence (Q9UPI3 1-84): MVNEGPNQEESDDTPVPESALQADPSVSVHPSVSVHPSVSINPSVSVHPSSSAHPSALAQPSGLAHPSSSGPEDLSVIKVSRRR
The experiment is described as follows: ITC with purified NTD; also heme absorbance-shift (Soret/Q band) and gel-filtration co-elution. The format is binding.

One may read the Kd as the constant that tells how readily two partners part at equilibrium.

Take `C=CC1=C(C)C2=Cc3c(C=C)c(C)c4[n]3[Fe][n]3c(c(C)c(CCC(=O)O)c3=CC3=NC(=C4)C(C)=C3CCC(=O)O)=CC1=N2` [heme]: the Kd was ~1000 nM.

The values are drawn from article PMC7515921, “MFSD7C switches mitochondrial ATP synthesis to thermogenesis in response to heme” (Nature Communications, 2020).
